# System: AMP-activated protein kinase (AMPK)
# Assay: ADP Quest assay for AMPK activators
# Assay type: biochemical
# Parameters: key: fold AMPK activation with vs without activator at 30 µM
# Conditions: fold of AMPK activation to phosphorylate SAMS peptide without and with an activator at the concentration of 30 µM
# Summary of the method: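 AMPK phosphorylation of SAMS peptide with ATP monitored kinetically at room temperature by ADP Quest fluorescence (ex 530/em 590 nm), reaction started with enzyme. Compounds tested […] in 2-fold dilutions, AMP as reference. E30 is fold activation at 30 µM activator versus none.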
row,Compound,E30
1,"CC1(C)Cc2cc(C(=O)O)ccc2NC1c1ccc(F)c(Cl)c1 (centres unmarked) [Example 113, 2-(3-Chloro-4-fluoro-phenyl)-3,3-dimethyl-1,2,3,4-tetrahydro-quinoline-6-carboxylic acid]",1.21
2,"CC1(C)Cc2cc(C(=O)NS(C)(=O)=O)cc(Cl)c2NC1c1cccc(N2CCOCC2)c1 (centres unmarked) [Example 115, N-[8-Chloro-3,3-dimethyl-2-(3-morpholin-4-yl-phenyl)-1,2,3,4-tetrahydro-quinoline-6-carbonyl]-methanesulfonamide]",1.2
3,"CC1(C)Cc2c(ccc(F)c2C(=O)NS(=O)(=O)C2CC2)NC1c1cccc(N2CCOCC2)c1 (centres unmarked) [Example 117, Cyclopropanesulfonic acid [6-fluoro-3,3-dimethyl-2-(3-morpholin-4-yl-phenyl)-1,2,3,4-tetrahydro-quinoline-5-carbonyl]-amide]",1.7
4,"CC1(C)Cc2c(ccc(F)c2C(=O)NS(C)(=O)=O)NC1c1cccc(N2CCOCC2)c1 (centres unmarked) [Example 118, N-[6-Fluoro-3,3-dimethyl-2-(3-morpholin-4-yl-phenyl)-1,2,3,4-tetrahydro-quinoline-5-carbonyl]-methanesulfonamide]",1.64
5,"CNCCN(C)c1cccc(C2Nc3ccc(C(=O)O)cc3CC2(C)C)c1 (centres unmarked) [Example 120, 3,3-Dimethyl-2-{3-[methyl-(2-methylamino-ethyl)-amino]-phenyl}-1,2,3,4-tetrahydro-quinoline-6-carboxylic acid]",1.5
6,"CC1(C)Cc2c(ccc(F)c2C(=O)O)NC1c1cccc(N2CCOCC2)c1 (centres unmarked) [Example 121, 6-Fluoro-3,3-dimethyl-2-(3-morpholin-4-yl-phenyl)-1,2,3,4-tetrahydro-quinoline-5-carboxylic acid]",1.42
7,"CN1CCN(c2cccc(C3Nc4ccc(C(=O)O)cc4CC3(C)C)c2)C(=O)C1=O (centres unmarked) [Example 126, 3,3-Dimethyl-2-[3-(4-methyl-2,3-dioxo-piperazin-1-yl)-phenyl]-1,2,3,4-tetrahydro-quinoline-6-carboxylic acid]",1.28
8,"CC1(C)Cc2c(C(=O)NS(=O)(=O)C3CC3)ccc(Cl)c2NC1c1cccc(N2CCOCC2)c1 (centres unmarked) [Example 133, Cyclopropanesulfonic acid [8-chloro-3,3-dimethyl-2-(3-morpholin-4-yl-phenyl)-1,2,3,4-tetrahydro-quinoline-5-carbonyl]-amide]",1.2
9,"CC1(C)Cc2c(cc(F)cc2C(=O)O)NC1c1cccc(N2CCOCC2)c1 (centres unmarked) [Example 134, 7-Fluoro-3,3-dimethyl-2-(3-morpholin-4-yl-phenyl)-1,2,3,4-tetrahydro-quinoline-5-carboxylic acid]",1.32
10,"CC1(C)Cc2c(cc(F)cc2C(=O)NS(C)(=O)=O)NC1c1cccc(N2CCOCC2)c1 (centres unmarked) [Example 135, N-[7-Fluoro-3,3-dimethyl-2-(3-morpholin-4-yl-phenyl)-1,2,3,4-tetrahydro-quinoline-5-carbonyl]-methanesulfonamide]",1.31
11,"CC1(C)Cc2cc(C(=O)O)ccc2NC1c1cccc(-n2cnc3c(c2=O)CCN(Cc2ccccc2)C3)c1 (centres unmarked) [Example 136, 2-[3-(7-Benzyl-4-oxo-5,6,7,8-tetrahydro-4H-pyrido[3,4-d]pyrimidin-3-yl)-phenyl]-3,3-dimethyl-1,2,3,4-tetrahydro-quinoline-6-carboxylic acid]",1.3
12,"CC1(C)Cc2ccc(C(=O)O)c(F)c2NC1c1cccc(N2CCOCC2)c1 (centres unmarked) [Example 137, 8-Fluoro-3,3-dimethyl-2-(3-morpholin-4-yl-phenyl)-1,2,3,4-tetrahydro-quinoline-7-carboxylic acid]",1.26
13,"CC1(C)Cc2c(cc(F)cc2C(=O)NS(=O)(=O)C2CC2)NC1c1cccc(N2CCOCC2)c1 (centres unmarked) [Example 138, Cyclopropanesulfonic acid [7-fluoro-3,3-dimethyl-2-(3-morpholin-4-yl-phenyl)-1,2,3,4-tetrahydro-quinoline-5-carbonyl]-amide]",1.21
14,"CN1CCN(c2cccc(C3Nc4c(cc(Cl)cc4C(=O)NS(=O)(=O)C4CC4)CC3(C)C)c2)CC1 (centres unmarked) [Example 139, Cyclopropanesulfonic acid {6-chloro-3,3-dimethyl-2-[3-(4-methyl-piperazin-1-yl)-phenyl]-1,2,3,4-tetrahydro-quinoline-8-carbonyl}-amide]",1.38
15,"CC(C)c1ccc(-c2cccc(C3Nc4c(cc(Cl)cc4C(=O)O)CC3(C)C)c2)cc1 (centres unmarked) [Example 140, 6-Chloro-2-(4′-isopropyl-biphenyl-3-yl)-3,3-dimethyl-1,2,3,4-tetrahydro-quinoline-8-carboxylic acid]",1.34
16,"CN(C)c1ccc(-c2cccc(C3Nc4c(cc(Cl)cc4C(=O)NS(=O)(=O)C4CC4)CC3(C)C)c2)cc1 (centres unmarked) [Example 141, Cyclopropanesulfonic acid [6-chloro-2-(4′-dimethylamino-biphenyl-3-yl)-3,3-dimethyl-1,2,3,4-tetrahydro-quinoline-8-carbonyl]-amide]",1.3
17,"CC(C)(C)c1ccc(-c2cccc(C3Nc4c(cc(Cl)cc4C(=O)O)CC3(C)C)c2)cc1 (centres unmarked) [Example 142, 2-(4′-tert-Butyl-biphenyl-3-yl)-6-chloro-3,3-dimethyl-1,2,3,4-tetrahydro-quinoline-8-carboxylic acid]",1.54
18,"CC(C)(C)c1ccc(-c2cccc(C3Nc4c(cc(Cl)cc4C(=O)NS(=O)(=O)C4CC4)CC3(C)C)c2)cc1 (centres unmarked) [Example 143, Cyclopropanesulfonic acid [2-(4′-tert-butyl-biphenyl-3-yl)-6-chloro-3,3-dimethyl-1,2,3,4-tetrahydro-quinoline-8-carbonyl]-amide]",1.33
19,"CC(C)(C)c1ccc(-c2cccc(C3Nc4c(cc(Cl)cc4C(=O)NS(C)(=O)=O)CC3(C)C)c2)cc1 (centres unmarked) [Example 144, N-[2-(4′-tert-Butyl-biphenyl-3-yl)-6-chloro-3,3-dimethyl-1,2,3,4-tetrahydro-quinoline-8-carbonyl]-methanesulfonamide]",1.25
20,"CCc1nnnn1-c1cccc(C2Nc3ccc(C(=O)NS(C)(=O)=O)cc3CC2(C)C)c1 (centres unmarked) [Example 146, N-{2-[3-(5-Ethyl-tetrazol-1-yl)-phenyl]-3,3-dimethyl-1,2,3,4-tetrahydro-quinoline-6-carbonyl}-methanesulfonamide]",1.21
21,"CC1(C)Cc2cc(C(=O)O)ccc2NC1c1cccc(-n2nnnc2Cc2ccccc2)c1 (centres unmarked) [Example 147, 2-[3-(5-Benzyl-tetrazol-1-yl)-phenyl]-3,3-dimethyl-1,2,3,4-tetrahydro-quinoline-6-carboxylic acid]",1.35

# Continued, values first:
row,E30,Compound
1,1.21,"CC1(C)Cc2cc(C(=O)NS(=O)(=O)C3CC3)ccc2NC1c1cncc(N2CCOCC2)c1 (centres unmarked) [Example 114, Cyclopropanesulfonic acid [3,3-dimethyl-2-(5-morpholin-4-yl-pyridin-3-yl)-1,2,3,4-tetrahydro-quinoline-6-carbonyl]-amide]"
2,1.2,"CC1(C)Cc2cc(C(=O)NS(=O)(=O)C3CC3)ccc2NC1c1cccc(N2CCOC2=O)c1 (centres unmarked) [Example 116, Cyclopropanesulfonic acid {3,3-dimethyl-2-[3-(2-oxo-oxazolidin-3-yl)-phenyl]-1,2,3,4-tetrahydro-quinoline-6-carbonyl}-amide]"
3,1.39,CC(C)[C@H]1COC(=O)N1c1cccc(C2Nc3ccc(C(=O)O)cc3CC2(C)C)c1 (some centres unmarked) [Example 122]
4,1.36,"CC(C)[C@@H]1COC(=O)N1c1cccc(C2Nc3ccc(C(=O)NS(C)(=O)=O)cc3CC2(C)C)c1 (stereo partly drawn) [Example 123, N-{2-[3-((R)-4-Isopropyl-2-oxo-oxazolidin-3-yl)-phenyl]-3,3-dimethyl-1,2,3,4-tetrahydro-quinoline-6-carbonyl}-methanesulfonamide]"
5,1.33,"CC(C)[C@@H]1COC(=O)N1c1cccc(C2Nc3ccc(C(=O)NS(=O)(=O)C4CC4)cc3CC2(C)C)c1 (stereo partly drawn) [Example 125, Cyclopropanesulfonic acid {2-[3-((R)-4-isopropyl-2-oxo-oxazolidin-3-yl)-phenyl]-3,3-dimethyl-1,2,3,4-tetrahydro-quinoline-6-carbonyl}-amide]"
6,1.26,"CC1(C)Cc2cc(C(=O)NS(C)(=O)=O)ccc2NC1c1cccc(N2C(=O)OC[C@H]2Cc2ccccc2)c1 (stereo partly drawn) [Example 128, N-{2-[3-((R)4-Benzyl-2-oxo-oxazolidin-3-yl)-phenyl]-3,3-dimethyl-1,2,3,4-tetrahydro-quinoline-6-carbonyl}-methanesulfonamide]"
7,1.25,"CN1CCN(c2cccc(C3Nc4ccc(C(=O)NS(=O)(=O)C5CC5)cc4CC3(C)C)c2)C(=O)C1=O (centres unmarked) [Example 129, Cyclopropanesulfonic acid {3,3-dimethyl-2-[3-(4-methyl-2,3-dioxo-piperazin-1-yl)-phenyl]-1,2,3,4-tetrahydro-quinoline-6-carbonyl}-amide]"
8,1.25,"CC1(C)Cc2cc(C(=O)NS(=O)(=O)C3CC3)ccc2NC1c1cccc(N2C(=O)OC[C@H]2Cc2ccccc2)c1 (stereo partly drawn) [Example 130, Cyclopropanesulfonic acid {2-[3-((R)4-benzyl-2-oxo-oxazolidin-3-yl)-phenyl]-3,3-dimethyl-1,2,3,4-tetrahydro-quinoline-6-carbonyl}-amide]"
9,1.24,"CN1CCN(c2cccc(C3Nc4ccc(C(=O)NS(C)(=O)=O)cc4CC3(C)C)c2)C(=O)C1=O (centres unmarked) [Example 131, N-{3,3-Dimethyl-2-[3-(4-methyl-2,3-dioxo-piperazin-1-yl)-phenyl]-1,2,3,4-tetrahydro-quinoline-6-carbonyl}-methanesulfonamide]"
10,1.23,"CC1(C)Cc2cc(C(=O)NS(=O)(=O)C3CC3)ccc2NC1c1cccc(N2C(=O)OC[C@@H]2Cc2ccccc2)c1 (stereo partly drawn) [Example 132, Cyclopropanesulfonic acid {2-[3-((S)-4-benzyl-2-oxo-oxazolidin-3-yl)-phenyl]-3,3-dimethyl-1,2,3,4-tetrahydro-quinoline-6-carbonyl}-amide]"
11,1.22,"CCc1nnnn1-c1cccc(C2Nc3ccc(C(=O)NS(=O)(=O)C4CC4)cc3CC2(C)C)c1 (centres unmarked) [Example 145, Cyclopropanesulfonic acid {2-[3-(5-ethyl-tetrazol-1-yl)-phenyl]-3,3-dimethyl-1,2,3,4-tetrahydro-quinoline-6-carbonyl}-amide]"

# Source: US8586747B2, “3,3-dimethyl tetrahydroquinoline derivatives” (Hoffmann-La Roche Inc., priority 2010, dated 2013)
